{"source": "patent US9315544B2", "about": "“Method of treating eosinophilia by administering an immunomodulating peptide” (National Tsing Hua University, priority 2012, dated 2016)", "key": {"CCL11": {"test_system": "CCL11", "experiment": "Cytokine mRNA expression analysis by quantitative real-time PCR (CCL11)", "assay_type": "cell-based", "settings": "Beas-2B cells", "description": "FIG. 1A-1B illustrates immunomodulatory effect of CMP on transcription of cytokine. Beas-2B cells were starved with serum free medium for 24 h, followed by stimulation with refold 5 μM ECP or 5 μM CMP or co-treatment with 5 μM ECP and 5 μM CMP at 37° C. for (A) 6 h and (B) 12 h, respectively. The mRNA quantities of CCL11, CCL24 and CCL26 were determined by real-time PCR. Beas-2B cells without protein treatment were used as control. […] The data represented at least three independent experiments and the error bar was shown as standard deviation (SD).\nFor inflammatory cytokine expression analysis, Beas-2B cells were stimulated with three different conditions: 1) 5 μM ECP, 2) 5 μM CMP and 3) co-incubated with 5 μM ECP and 5 μM CMP at 37° C. for 6 and 12 h. After incubation, total RNAs were extracted with RNA TRIzol reagent (Invitrogen, Inc) and reverse transcribed with MoMLV-reverse transcriptase (Promega, Madison, Wis.). SYBR Green-based quantitative real-time PCR will be used to quantify the gene of interest, relative expression ratios of genes of interest were normalized to glyceraldehyde-3-phosphate dehydrogenase (GAPDH) transcripts. Changes in cytokine expression were measured by quantitative real-time PCR (qRT-PCR) employing the StepOne™ amplification and detection system (Life Technologies Corporation). Data were analyzed by application of the StepOne™ quantification program software (version 2.22, Life Technologies Corporation) and expressed as means±S.D. Significance analysis was carried out by a two-sample unequal variance t-test with two-tailed distribution (post test). Significance was set as P<0.05.\nECP, the best known marker protein of asthma, is involved in triggering cytokine expression in bronchial epithelial cells. Real-time PCR analysis was carried out to quantify expression levels of indicated cytokines upon treatment with recombinant ECP in the presence and absence of CMP Bronchial epithelial Beas-2B cells were separately cultured in serum-free medium in the presence of 5 μM ECP, 5 μM CMP and both 5 μM ECP and 5 μM CMP for 6 and 12 h to monitor cytokine and chemokine gene modulation using real-time quantitative PCR. Untreated Beas-2B cells incubated at the same condition for 6 h and 12 h were used as negative controls. Here variation of gene expression levels of chemokines including CCL11, CCL24 and CCL26 was analyzed."}, "[1]": {"test_system": "mite-induced airway inflammation", "experiment": "Lung histopathology (H&E), peri-bronchiolar and alveolar inflammation scores", "assay_type": "in vivo, BALB/c mouse", "text": "(§1) FIG. 4 illustrates experimental design. All groups except control group were immunized with mite crude extract allergen on days 1 and 8, then mite crude extract allergen intratracheally on day 15 in all mite treated group, BALB/c mouse were divided into six groups (1) control group (PBS), (2) mites delivered intratracheally (mIT, mite on day 15) alone, (3) CMP intranasal (eIN, CMP on days 1 to 22) alone, (4) preventive-treatment group (eIN+mIT, CMP on days 1 to 14, mite on day 15) (5) therapy-treatment group (mIT+eIN, mite on day 15, CMP on days 15 to 22), and (6) preventive- and therapeutic-treatment group (eIN+mIT+eIN, CMP on days 1 to 22, mite on day 15).\nFIG. 6A-6B illustrates inhibitory effect of CMP on influx of inflammatory cells. […] (A) Scores for peri-bronchiolar, alveolar inflammation and (B) PAS were determined based on the histological sections. Each result was expressed as the mean±S.D., n=4. ***, P<0.001. […]\nThe formalin-fixed lung sections stained with hematoxylin and eosin (H&E) were assigned a unit value for alveolar, peri-bronchiolar, and total inflammation by computing the means of three independent scores for three randomly selected fields. […] For evaluating the hyperplasia goblet cells, medium-sized airways were assessed in sections stained with periodic acid-Schiff (PAS) stain. Two reviewers independently and randomly scored 10 fields of each slide. […]"}, "mite-specific IgE": {"test_system": "mite-specific IgE", "experiment": "Serum mite-specific IgE by ELISA", "assay_type": "in vivo, BALB/c mouse", "text": "as §1\nFIG. 8 illustrates inhibitory effect of CMP on serum IgE level. […] Levels of serum Derp-specific IgE were measured by enzyme-linked immunosorbent assay (ELISA). Each result was expressed as the mean±S.D., n=4. *, P<0.05, **, P<0.01. […]\nMite protein (5 μg) was coated on the plated at 4° C. overnight. […] The levels of serum mite-specific IgE were measured by enzyme-linked immunosorbent assay (ELISA).\nTo further analyze therapeutic effect of CMP on mite sensitization, serum mite-specific IgE levels in mice were measured from all six treatment groups. […]"}}, "data": [{"sequence": "NYRWRCKNQN (CMP)", "values": [{"measurement": "effect on chemokine gene expression (CCL11, CCL24, CCL26)", "setting": "CCL11; 5 μM CMP alone, 6 and 12 h", "value": "no effect"}, {"measurement": "ECP-induced gene expression of CCL11", "setting": "CCL11; co-treatment 5 μM ECP and 5 μM CMP, 6 h", "value": "significant reduction"}, {"measurement": "effect on peribronchiolar, alveolar inflammation and goblet cells hyperplasia", "setting": "[1]; eIN+mIT+eIN compared with eIN+mIT and mIT+eIN group", "value": "more potently suppressive effect"}, {"measurement": "peri-bronchiolar and alveolar scores compared with mIT group", "setting": "[1]; eIN+mIT+eIN group (CMP days 1 to 22)", "value": "significantly lower"}, {"measurement": "serum mite-specific IgE level compared with mIT group", "setting": "mite-specific IgE; eIN+mIT+eIN group, day 23", "value": "much lower"}, {"measurement": "serum mite-specific IgE reading of mIT group compared with CMP groups", "setting": "mite-specific IgE; mIT vs eIN+mIT, mIT+eIN and eIN+mIT+eIN groups, day 18", "value": "higher"}]}]}
